Test results as given in patent publication US11401555B2, “Genetic polymorphisms associated with stroke, methods of detection and uses thereof” (CELERA CORPORATION, priority 2008, dated 2022).

Test: Stroke statin response (SSR) in the PROSPER pravastatin trial: pravastatin-treated versus placebo-treated, by SNP genotype
Type: in vivo, human
Settings: for HR_RESP_unadj (hazard ratio, pravastatin-treated versus placebo-treated): endpoint stroke; for EVENTS_RESP (number of stroke events): pravastatin arm
From the text: (hCV26505812) for association with SSR in CARE (Table 37) and PROSPER (Table 38), including both unadjusted and adjusted analyses (adjusted for factors such as age, gender, smoking status, hypertension, diabetes, BMI, and LDL and HDL levels). Table 37 provides results in CARE, and Table 38 provides results in PROSPER (whether each analysis is unadjusted or adjusted is indicated in the “adjust” column in Table 37, or by “unadj” and “adj” column labels in Tables 38). With respect to Tables 22-32 and 37-38, the columns labeled “Genotype” (in Tables 22-28 and 37), “Geno_Placebo” (in Tables 29-30 and 38), and “Geno_Resp” (in Tables 31-32 and 38) indicate the genotype which the given stroke risk or SSR results correspond to. […] In Tables 29-32 and 38, the columns labeled “LOWER_PLACEBO” and “UPPER_PLACEBO” (Tables 29-30 and 38), and “LOWER_RESP” and “UPPER_RESP” (Tables 31-32 and 38), refer to the lower and upper 95% confidence intervals for the hazard ratios. See Example Six below for further information relating to Tables 22-32 and 37-38. […] As used herein, the term “benefit” (with respect to a preventive or therapeutic drug treatment) is defined as achieving a reduced risk for a disease that the drug is intended to treat or prevent (e.g., stroke) by administrating the drug treatment, compared with the risk for the disease in the absence of receiving the drug treatment (or receiving a placebo in lieu of the drug treatment) for the same genotype. The term “benefit” may be used herein interchangeably with terms such as “respond positively” or “positively respond”. For stroke risk and statin response associations based on samples from the CARE and PROSPER trials described herein, stroke risk is assessed by comparing the risk of stroke for a given genotype with the risk of stroke for a reference genotype either in the placebo arm of the trial or in the whole study population of the trial, and statin response is assessed by comparing the risk of stroke in the pravastatin arm of the trial with the risk of stroke in the placebo arm of the trial for the same genotype. […] Example Five above describes the analysis of these 61 SNPs plus 17 additional SNPs in the German West Study. […] In PROSPER, SNPs were analyzed for association with stroke risk or SSR, in the whole study cohort (strata: “ALL”), or in the subgroup with a history of CVD (strata: “hist”) or without a CVD history (strata: “no hist”). […] Also in the CARE and PROSPER trials, the chromosome 9p21 SNP […] (hCV26505812) was analyzed further for association with SSR, including unadjusted and adjusted analysis. Adjusted analysis in CARE (Table 37) was adjusted for age, gender, smoking status, hypertension, diabetes, body mass index (BMI), and LDL and HDL levels, and adjusted analysis in PROSPER (Table 38) was adjusted for country, gender, age, LDL, HDL, smoking status (current vs. past or never), history of hypertension, and diabetes. Table 37 provides results in CARE, and Table 38 provides results in PROSPER (whether each analysis is unadjusted or adjusted is indicated in the “adjust” column in Table 37, or by “unadj” and “adj” column labels in Tables 38). All the p-values (including Pint values) provided in Tables 37-38 are two-sided p-values.

[1] = hCV1348610 rs3739636 C9orf46, GENO_RESP AA + AG, MODE DOM, STRATA hist
[2] = hCV1348610 rs3739636 C9orf46, GENO_RESP AA, MODE GEN, STRATA hist
[3] = hCV1348610 rs3739636 C9orf46, GENO_RESP AG, MODE GEN, STRATA hist
[4] = hCV1348610 rs3739636 C9orf46, GENO_RESP GG, MODE GEN, STRATA hist
[5] = hCV2091644 rs1010 VAMP8, GENO_RESP CC, MODE GEN, STRATA no hist
[6] = hCV2091644 rs1010 VAMP8, GENO_RESP CT, MODE GEN, STRATA no hist
[7] = hCV2091644 rs1010 VAMP8, GENO_RESP TT, MODE GEN, STRATA no hist

In the case of CC[C@H](C)C(=O)O[C@H]1C[C@H](O)C=C2C=C[C@H](C)[C@H](CC[C@@H](O)C[C@@H](O)CC(=O)O)[C@H]21 [pravastatin], the “HR_RESP_unadj (hazard ratio, pravastatin-treated versus placebo-treated)” value (PROSPER, rs10757274 genotype AA + AG, mode REC, strata ALL, unadjusted) is reported as 0.919, the “HR_RESP_unadj (hazard ratio, pravastatin-treated versus placebo-treated)” value (PROSPER, rs10757274 genotype AA + AG, mode REC, strata hist, unadjusted) is reported as 0.885 and the “HR_RESP_unadj (hazard ratio, pravastatin-treated versus placebo-treated)” value (PROSPER, rs10757274 genotype AA + AG, mode REC, strata no hist, unadjusted) is reported as 0.927. The “HR_RESP_unadj (hazard ratio, pravastatin-treated versus placebo-treated)” value (PROSPER, rs10757274 genotype AA, mode GEN, strata ALL, unadjusted) was 1.330, the “HR_RESP_unadj (hazard ratio, pravastatin-treated versus placebo-treated)” value (PROSPER, rs10757274 genotype AA, mode GEN, strata hist, unadjusted) was 1.093 and the “HR_RESP_unadj (hazard ratio, pravastatin-treated versus placebo-treated)” value (PROSPER, rs10757274 genotype AA, mode GEN, strata no hist, unadjusted) was 1.570. For the same compound, the “HR_RESP_unadj (hazard ratio, pravastatin-treated versus placebo-treated)” value (PROSPER, rs10757274 genotype AG, mode GEN, strata ALL, unadjusted) was 0.777, the “HR_RESP_unadj (hazard ratio, pravastatin-treated versus placebo-treated)” value (PROSPER, rs10757274 genotype AG, mode GEN, strata hist, unadjusted) was 0.816 and the “HR_RESP_unadj (hazard ratio, pravastatin-treated versus placebo-treated)” value (PROSPER, rs10757274 genotype AG, mode GEN, strata no hist, unadjusted) was 0.698. For the same compound, the “HR_RESP_unadj (hazard ratio, pravastatin-treated versus placebo-treated)” value (PROSPER, rs10757274 genotype GG + AG, mode DOM, strata ALL, unadjusted) was 0.864, the “HR_RESP_unadj (hazard ratio, pravastatin-treated versus placebo-treated)” value (PROSPER, rs10757274 genotype GG + AG, mode DOM, strata hist, unadjusted) was 0.892 and the “HR_RESP_unadj (hazard ratio, pravastatin-treated versus placebo-treated)” value (PROSPER, rs10757274 genotype GG + AG, mode DOM, strata no hist, unadjusted) was 0.813. For the same compound, the “HR_RESP_unadj (hazard ratio, pravastatin-treated versus placebo-treated)” value (PROSPER, rs10757274 genotype GG, mode GEN, strata ALL, unadjusted) was 1.082, the “HR_RESP_unadj (hazard ratio, pravastatin-treated versus placebo-treated)” value (PROSPER, rs10757274 genotype GG, mode GEN, strata hist, unadjusted) was 1.098 and the “HR_RESP_unadj (hazard ratio, pravastatin-treated versus placebo-treated)” value (PROSPER, rs10757274 genotype GG, mode GEN, strata no hist, unadjusted) was 1.068. For the same compound, the “HR (hazard ratio) for stroke events, pravastatin-treated versus placebo-treated” value (PROSPER, heterozygous carriers of SNP rs10757274 (chromosome 9p21), unadjusted) was 0.777, the “EVENTS_RESP (number of stroke events)” value (PROSPER, genotype AA + AG, mode REC, strata ALL) was 150 and the “EVENTS_RESP (number of stroke events)” value (PROSPER, genotype AA + AG, mode REC, strata hist) was 87. For the same compound, the “EVENTS_RESP (number of stroke events)” value (PROSPER, genotype AA + AG, mode REC, strata no hist) was 63, the “EVENTS_RESP (number of stroke events)” value (PROSPER, genotype AA, mode GEN, strata ALL) was 56 and the “EVENTS_RESP (number of stroke events)” value (PROSPER, genotype AA, mode GEN, strata hist) was 28. The “EVENTS_RESP (number of stroke events)” value (PROSPER, genotype AA, mode GEN, strata no hist) was 28, the “EVENTS_RESP (number of stroke events)” value (PROSPER, genotype AG, mode GEN, strata ALL) was 94 and the “EVENTS_RESP (number of stroke events)” value (PROSPER, genotype AG, mode GEN, strata hist) was 59. For the same compound, the “EVENTS_RESP (number of stroke events)” value (PROSPER, genotype AG, mode GEN, strata no hist) was 35, the “EVENTS_RESP (number of stroke events)” value (PROSPER, genotype GG + AG, mode DOM, strata ALL) was 145 and the “EVENTS_RESP (number of stroke events)” value (PROSPER, genotype GG + AG, mode DOM, strata hist) was 86. For the same compound, the “EVENTS_RESP (number of stroke events)” value (PROSPER, genotype GG + AG, mode DOM, strata no hist) was 59, the “EVENTS_RESP (number of stroke events)” value (PROSPER, genotype GG, mode GEN, strata ALL) was 51 and the “EVENTS_RESP (number of stroke events)” value (PROSPER, genotype GG, mode GEN, strata hist) was 27. For the same compound, the “EVENTS_RESP (number of stroke events)” value (PROSPER, genotype GG, mode GEN, strata no hist) was 24, the EVENTS_RESP [1] was 71 and the “HR_RESP (hazard ratio, pravastatin-treated versus placebo-treated)” value [1] was 0.8064. The EVENTS_RESP [2] was 24, the “HR_RESP (hazard ratio, pravastatin-treated versus placebo-treated)” value [2] was 0.9861 and the EVENTS_RESP [3] was 47. The “HR_RESP (hazard ratio, pravastatin-treated versus placebo-treated)” value [3] was 0.7406, the EVENTS_RESP [4] was 43 and the “HR_RESP (hazard ratio, pravastatin-treated versus placebo-treated)” value [4] was 1.277. For the same compound, the EVENTS_RESP (hCV2091644 rs1010 VAMP8, GENO_RESP CC + CT, MODE DOM, STRATA no hist) was 50, the EVENTS_RESP [5] was 13 and the “HR_RESP (hazard ratio, pravastatin-treated versus placebo-treated)” value [5] was 0.6359. The EVENTS_RESP [6] was 37, the “HR_RESP (hazard ratio, pravastatin-treated versus placebo-treated)” value [6] was 0.8504 and the EVENTS_RESP [7] was 36. The “HR_RESP (hazard ratio, pravastatin-treated versus placebo-treated)” value [7] was 1.358, the EVENTS_RESP (hCV2169762 rs1804689 HPS1, GENO_RESP GG + GT, MODE REC, STRATA hist) was 109 and the EVENTS_RESP (hCV2169762 rs1804689 HPS1, GENO_RESP GG, MODE GEN, STRATA hist) was 62.
